Experimental data: patent publication US8686150B2 (Sanofi, priority 2011, dated 2014)

molecular target: T1, human full-length recombinant PKC βII (Homo sapiens, UniProt P05771); assay: Determination of PKC βII inhibition (Caliper mobility-shift kinase assay, Fluorescein-RFARKGSLRQKNV peptide substrate); type: biochemical; conditions: example compounds at a final concentration of 1.14 μM (±0.15 μM)
T1 construct: Active human full-length recombinant PKC βII; purchased Invitrogen GmbH, Darmstadt, Germany
Procedure, shortened: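 Full-length PKC βII (30 ng/ml in pre-dilution) with PS/DAG/Ca2+ activators, pH 7.4; fluorescein peptide and ATP at 3 μM and 120 μM before mixing. Reaction ran 60 min at 32 °C, was EDTA-stopped, and was read by mobility shift. % inhibition came from product/(substrate+product) peak heights, tested at 1.14 μM final.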

T1 sequence (P05771 1-673 isoform P05771-2): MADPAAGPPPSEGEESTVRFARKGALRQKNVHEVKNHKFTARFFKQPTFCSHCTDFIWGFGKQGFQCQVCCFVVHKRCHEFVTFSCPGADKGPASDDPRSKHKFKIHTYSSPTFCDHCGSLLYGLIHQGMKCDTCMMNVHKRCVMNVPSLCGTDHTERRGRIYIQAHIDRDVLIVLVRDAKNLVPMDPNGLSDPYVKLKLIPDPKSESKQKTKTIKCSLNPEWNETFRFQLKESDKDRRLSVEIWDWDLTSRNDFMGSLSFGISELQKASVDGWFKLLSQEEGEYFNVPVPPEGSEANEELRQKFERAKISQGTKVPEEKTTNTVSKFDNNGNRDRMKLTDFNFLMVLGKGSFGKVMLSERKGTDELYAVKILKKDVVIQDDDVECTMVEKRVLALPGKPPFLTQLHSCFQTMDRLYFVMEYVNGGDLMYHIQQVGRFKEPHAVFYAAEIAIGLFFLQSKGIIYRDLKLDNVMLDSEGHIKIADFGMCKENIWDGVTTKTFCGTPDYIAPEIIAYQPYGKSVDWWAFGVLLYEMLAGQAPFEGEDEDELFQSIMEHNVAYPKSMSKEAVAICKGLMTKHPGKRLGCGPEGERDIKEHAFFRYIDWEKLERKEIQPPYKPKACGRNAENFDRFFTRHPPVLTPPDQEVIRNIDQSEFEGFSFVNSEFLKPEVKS

Compound | inhibition at 1.14 µM [%]
Cc1n[nH]c2nc(-c3ccc(O)cc3)cc(C(=O)N3CCNC[C@@H]3Cc3ccccc3)c12 [Example 225, ((S)-2-Benzyl-piperazin-1-yl)-[6-(4-hydroxy-phenyl)-3-methyl-1H-pyrazolo[3,4-b]pyridin-4-yl]-methanone] | 85
CCOC1CNCC1NC(=O)c1cc(-c2ccc(O)cc2)nc2[nH]nc(C)c12 (centres unmarked) [Example 44, 6-(4-Hydroxy-phenyl)-3-methyl-1H-pyrazolo[3,4-b]pyridine-4-carboxylic acid (4-ethoxy-pyrrolidin-3-yl)-amide] | 83
CCc1n[nH]c2nc(-c3ccc(O)cc3)cc(C(=O)N3CC4(CCNCC4)C3)c12 [Example 169, (2,7-Diaza-spiro[3.5]non-2-yl)-[3-ethyl-6-(4-hydroxy-phenyl)-1H-pyrazolo[3,4-b]pyridin-4-yl]-methanone] | 84
Cc1n[nH]c2nc(-c3ccc(O)cc3)cc(C(=O)NC3CC4CC3CN4)c12 (centres unmarked) [Example 193, 6-(4-Hydroxy-phenyl)-3-methyl-1H-pyrazolo[3,4-b]pyridine-4-carboxylic acid (2-aza-bicyclo[2.2.1]hept-5-yl)-amide] | 94
Cc1n[nH]c2nc(-c3ccc(O)cc3F)cc(C(=O)N3CCNCC3(C)C)c12 [Example 56, (2,2-Dimethyl-piperazin-1-yl)-[6-(2-fluoro-4-hydroxy-phenyl)-3-methyl-1H-pyrazolo[3,4-b]pyridin-4-yl]-methanone] | 96
CCc1n[nH]c2nc(-c3ccc(O)cc3)cc(C(=O)NC3CCCC(N)C3)c12 (centres unmarked) [Example 170, 3-Ethyl-6-(4-hydroxy-phenyl)-1H-pyrazolo[3,4-b]pyridine-4-carboxylic acid (3-amino-cyclohexyl)-amide] | 59
Cc1n[nH]c2nc(-c3ccc(O)cc3)cc(C(=O)N3CCN[C@@H](C)C3)c12 [Example 190, [6-(4-Hydroxy-phenyl)-3-methyl-1H-pyrazolo[3,4-b]pyridin-4-yl]-((S)-3-methyl-piperazin-1-yl)-methanone] | 101
Cc1n[nH]c2nc(-c3ccc(O)cc3)cc(C(=O)N3CCNC(C(F)(F)F)C3)c12 (centres unmarked) [Example 196, [6-(4-Hydroxy-phenyl)-3-methyl-1H-pyrazolo[3,4-b]pyridin-4-yl]-(3-trifluoromethyl-piperazin-1-yl)-methanone] | 75
CCc1n[nH]c2nc(-c3ccc(O)cc3)cc(C(=O)N3C[C@]4(C)CN(C)C[C@](C)(C3)C4O)c12 (stereo partly drawn) [Example 179, [3-Ethyl-6-(4-hydroxy-phenyl)-1H-pyrazolo[3,4-b]pyridin-4-yl]-((1S,5R)-9-hydroxy-1,5,7-trimethyl-3,7-diaza-bicyclo[3.3.1]non-3-yl)-methanone] | 55
Cc1cc(O)ccc1-c1cc(C(=O)N2CCNCC2(C)C)c2c(C)n[nH]c2n1 [Example 142, (2,2-Dimethyl-piperazin-1-yl)-[6-(4-hydroxy-2-methyl-phenyl)-3-methyl-1H-pyrazolo[3,4-b]pyridin-4-yl]-methanone] | 98

Continued, values first:

inhibition at 1.14 µM [%] | Compound
31 | Cc1n[nH]c2nc(-c3ccc(O)c(F)c3)cc(C(=O)NCC(C)(CN3CCCC3)c3ccccn3)c12 (centres unmarked) [Example 371, 6-(3-Fluoro-4-hydroxy-phenyl)-3-methyl-1H-pyrazolo[3,4-b]pyridine-4-carboxylic acid (2-methyl-2-pyridin-2-yl-3-pyrrolidin-1-yl-propyl)-amide]
23 | Cc1n[nH]c2nc(-c3ccc(O)cc3)cc(C(=O)NCC(c3ccccc3)N3CCOCC3)c12 (centres unmarked) [Example 394, 6-(4-Hydroxy-phenyl)-3-methyl-1H-pyrazolo[3,4-b]pyridine-4-carboxylic acid (2-morpholin-4-yl-2-phenyl-ethyl)-amide]
90 | Cc1n[nH]c2nc(-c3ccc(O)cc3F)cc(C(=O)N3C[C@@H](C)N(CC4CCNCC4)C[C@@H]3C)c12 [Example 453, ((2S,5R)-2,5-Dimethyl-4-piperidin-4-ylmethyl-piperazin-1-yl)-[6-(2-fluoro-4-hydroxy-phenyl)-3-methyl-1H-pyrazolo[3,4-b]pyridin-4-yl]-methanone]
88 | Cc1n[nH]c2nc(-c3ccc(O)cc3)cc(C(=O)N(C)C3CCNCC3)c12 [Example 241, 6-(4-Hydroxy-phenyl)-3-methyl-1H-pyrazolo[3,4-b]pyridine-4-carboxylic acid methyl-piperidin-4-yl-amide]
20 | O=C(c1cc(-c2ccc(O)cc2)nc2[nH]nc(C(F)(F)F)c12)N1CCC2(CCCNC2)C1 (centres unmarked) [Example 407, (2,7-Diaza-spiro[4.5]dec-2-yl)-[6-(4-hydroxy-phenyl)-3-trifluoromethyl-1H-pyrazolo[3,4-b]pyridin-4-yl]-methanone]
93 | Cc1n[nH]c2nc(-c3ccc(O)c(F)c3)cc(C(=O)N3CCN[C@H](C)C3)c12 [Example 337, [6-(3-Fluoro-4-hydroxy-phenyl)-3-methyl-1H-pyrazolo[3,4-b]pyridin-4-yl]-((R)-3-methyl-piperazin-1-yl)-methanone]
58 | Cc1n[nH]c2nc(-c3ccc(O)c(F)c3)cc(C(=O)N3CC(=O)NC(C(C)C)C3)c12 (centres unmarked) [Example 368, 4-[6-(3-Fluoro-4-hydroxy-phenyl)-3-methyl-1H-pyrazolo[3,4-b]pyridine-4-carbonyl]-6-isopropyl-piperazin-2-one]
31 | N[C@H]1CCN(C(=O)c2cc(-c3ccc(O)cc3)nc3[nH]nc(C(F)(F)F)c23)C1 [Example 404, ((S)-3-Amino-pyrrolidin-1-yl)-[6-(4-hydroxy-phenyl)-3-trifluoromethyl-1H-pyrazolo[3,4-b]pyridin-4-yl]-methanone]
91 | Cc1n[nH]c2nc(-c3ccc(O)c(F)c3)cc(C(=O)N3C[C@H]4CC[C@@H](C3)C4N)c12 (some centres unmarked) [Example 310, (8-Amino-3-aza-bicyclo[3.2.1]oct-3-yl)-[6-(3-fluoro-4-hydroxy-phenyl)-3-methyl-1H-pyrazolo[3,4-b]pyridin-4-yl]-methanone]
52 | Cc1n[nH]c2nc(-c3ccc(O)c(F)c3)cc(C(=O)NC3CCN(C4CCCCC4)CC3)c12 [Example 360, 6-(3-Fluoro-4-hydroxy-phenyl)-3-methyl-1H-pyrazolo[3,4-b]pyridine-4-carboxylic acid (1-cyclohexyl-piperidin-4-yl)-amide]
60 | NC1CCN(C(=O)c2cc(-c3ccc(O)cc3)nc3[nH]nc(C(F)(F)F)c23)CC1 [Example 399, (4-Amino-piperidin-1-yl)-[6-(4-hydroxy-phenyl)-3-trifluoromethyl-1H-pyrazolo[3,4-b]pyridin-4-yl]-methanone]
95 | Cc1n[nH]c2nc(-c3ccc(O)cc3)cc(C(=O)N3CCN[C@@H](C(C)C)C3)c12 [Example 233, [6-(4-Hydroxy-phenyl)-3-methyl-1H-pyrazolo[3,4-b]pyridin-4-yl]-((S)-3-isopropyl-piperazin-1-yl)-methanone]
42 | Cc1n[nH]c2nc(-c3ccc(O)cc3F)cc(C(=O)N3CCC(N)(C(F)(F)F)C3)c12 (centres unmarked) [Example 432, (3-Amino-3-trifluoromethyl-pyrrolidin-1-yl)-[6-(2-fluoro-4-hydroxy-phenyl)-3-methyl-1H-pyrazolo[3,4-b]pyridin-4-yl]-methanone]
